This is an account of results in patent publication US10478455B2, “Therapeutic use of tetrathiomolybdate” (UCL BUSINESS LTD, priority 2010, dated 2019).

The subject of data set [1] is rat model of haemorrhage/reperfusion injury. Put plainly: Study 6: rat model of haemorrhage/reperfusion injury. The data set is classed as in vivo. The protocol: This study investigated effects of TTM in a rat model of haemorrhage/reperfusion injury. Male Wistar rats were anaesthetized for insertion of carotid arterial and jugular venous lines for blood removal and fluid/drug administration, respectively. After 30 min stabilization, 50% estimated circulating blood volume was removed from the arterial line over 15 min. Animals were monitored for a further 90 min prior to resuscitation, then randomized to receive either TTM or placebo (normal saline). TTM (10 mg/kg) was administered as an i.v. bolus (2 ml/kg). This was immediately followed by administration of shed blood over 15 min. In TTM-treated animals, the shed blood was supplemented with a further 2.5 mg/kg TTM; total dose 12.5 mg/kg. Placebo treated animals received equivalent volumes of fluid and administration of shed blood. Following resuscitation, both groups of animals received 10 ml/kg/h n-saline and were monitored up to 6 h post-resuscitation. […] Thus, TTM administration improves outcome following severe haemorrhage/reperfusion injury. This beneficial effect is potentially mediated by modulation of metabolism.

A short description of data set [2]: Study 4: plasma sulphide after i.v. TTM (monobromobimane-based HPLC assay). The data set is classed as in vivo, rat. Here is the method: This study investigated sulphide release from tetrathiomolybdate (TTM). Male Wistar rats were anaesthetized allowing insertion of carotid arterial and jugular venous lines for blood sampling and drug administration, respectively. Plasma sulphide levels (measured using a monobromobimane-based HPLC assay) were determined up to 2 h following bolus i.v. administration of TTM (10 mg/kg) or for 3 h after the onset of two continuous i.v. infusions (10 and 20 mg/kg/h).

The subject of data set [3] is endotoxaemic animals. Put plainly: Study 3: core temperature during endotoxaemia (lipopolysaccharide, Klebsiella pneumoniae). The data set is classed as in vivo, rat. Here is the method: FIG. 3: Protocol for endotoxaemia experiments. ETX is endotoxin, TTM is tetrathiomolybdate. Fluids: a 50:50 mix of colloid and crystalloid plus glucose. TTM was diluted in normal saline and administered as a 4 ml/kg bolus. Animals received a venous line for drug administration under anaesthesia. Endotoxaemia (which typically causes an increase in core temperature) was induced by intravenous administration of lipopolysaccharide (20 mg/kg, Klebsiella pneumoniae). TTM or vehicle was administered 1 h following the onset of endotoxaemia (FIG. 3; protocol).

Data set [4] has as its system Soleus muscle fibres. Put plainly: Study 5: ex-vivo inhibition of oxygen consumption in permeabilized soleus muscle fibres (Clark electrode). Conditions: TTM 0.5-2 mM, saponin-permeabilized rat soleus muscle fibres. Here is the method:
This study investivated ex-vivo Inhibition of oxygen consumption by TTM. Soleus muscle was removed from the hind limbs of male Wistar rats and preserved on ice in a physiological buffer solution. Muscle fibres were isolated with forceps and permeabilized with saponin. Muscle fibres were placed in a closed chamber containing a physiological solution and substrates for oxidative metabolism. Oxygen concentrations within the chamber were measured using a Clark electrode. The fall in oxygen concentration over time (gradient) reflects oxygen consumption by the tissue. Either vehicle or TTM (0.5-2 mM) was added to the chamber and oxygen consumption assessed. […] This further highlights the ability of TTM to decrease metabolism.

Data set [5] relates to Male Wistar rats. Put plainly: Study 2: core temperature in anaesthetised rats. The format is in vivo, rat. The following applies: anaesthetised rats, 0.2, 2 and 20 mg/kg every 20 minutes; measured 20 minutes after the last dose, vs saline. Here is the method: Animals were anaesthetised and instrumented as above. Under continuous anaesthesia, TTM was administered every 20 minutes at increasing doses (0.2, 2 and 20 mg/kg). Core temperature was measured at the beginning of the experiment (i.e. before TTM administration) and 20 minutes after the last dose of the drug (20 mg/kg).

The subject of data set [6] is Male Wistar rats. Put plainly: Study 1: oxygen consumption and carbon dioxide production in awake rats in a metabolic cart. The data set is classed as in vivo, rat. Here is the method: Male Wistar rats (300 g) were anaesthetised and instrumented with a venous line for drug administration. The animals were placed into a metabolic cart and allowed to recover from anaesthesia. After 2 h, TTM was administered i.v. hourly at increasing doses (2, 5, 10 and 20 mg/kg). Oxygen consumption and carbon dioxide production were continually monitored for the duration of the experiment. TTM induced a clear drop in oxygen consumption and carbon dioxide production at 10 and 20 mg/kg (FIG. 1), compared to time-matched control animals (sham) receiving only vehicle (saline).

The test system of data set [7] is Wilson's disease. The following applies: cited from earlier work.
Setting [8] is: awake rats, TTM i.v. hourly at increasing doses, effect at 10 and 20 mg/kg vs sham (saline).

`[SH-].[SH-].[S]=[Mo]=[S]` [TTM, Tetrathiomolybdate]: the “6 h survival post-resuscitation” value in data set [1] (TTM 10 mg/kg i.v. bolus plus 2.5 mg/kg in shed blood (total 12.5 mg/kg) vs placebo) was “significant improvement in 6 h survival”. Also, the core temperature entry in data set [1] (TTM total dose 12.5 mg/kg, haemorrhage/reperfusion) is given as “Core temperature fell”; in data set [5] it was “decrease in core temperature”. In addition, the plasma sulphide half-life in data set [2] (bolus i.v. 10 mg/kg) is 17 min. Moreover, the plasma sulphide levels entry in data set [2] (bolus i.v. 10 mg/kg, up to 2 h) is given as “high levels of sulphide in plasma”; in data set [2] (continuous i.v. infusion 10 and 20 mg/kg/h, 3 h), “dose-dependent increase in plasma sulphide levels”. Also, the “time to steady state of plasma sulphide” value in data set [2] (continuous i.v. infusion 10 and 20 mg/kg/h) turned out to be 2 h. In data set [3] (TTM 20 mg/kg, 1 h after onset of endotoxaemia), the “core temperature at highest dose” value is “induced significant hypothermia”. The “hyperthermic response to endotoxin (core temperature)” value in data set [3] (TTM given 1 h after onset of endotoxaemia (LPS 20 mg/kg i.v.)) was “ablated the hyperthermic response to endotoxin”. In addition, the “oxygen consumption ex vivo” value in data set [4] is given as “dose-dependent inhibition of oxygen consumption”. For the same compound, in data set [6] (awake rats during intravenous infusion of TTM), the conscious level entry is on record as “conscious level was maintained”. The carbon dioxide production result in data set [6] (setting [8]) is on record as “clear drop”. Besides, the oxygen consumption result in data set [6] (setting [8]) is “clear drop”.

ammonium TTM: the “neurological function in patients who present with neurologic disease” value in data set [7] is listed as “preserves neurological function”.
